In PubChem BioAssay AID806 (SRMLSC, 2007) one finds EC50, EC90 and CC50 data, which are given here for 54 compounds.

Each structure is given as a SMILES string. pEC50: −log10 of the molar value. Calls of active or inactive are those of the source. The rule behind the calls is not given here.

For this assay, the system named is virus-infected cells, CPE inhibition, dose response. As to the kind of experiment: PubChem AID 806. The settings on record: for EC90: measured here: EC90 CPE inhibition; for CC50: measured here: cytotoxicity, cell viability IC50.

For orientation: EC50 means the concentration giving half of the maximal effect. For orientation: EC90 means the concentration at which the effect reaches the 90% level. Low readings indicate greater potency, high ones weaker potency. By CC50 is commonly meant the concentration that lowers cell viability or growth by half. A higher CC50 goes with better tolerance by the cells. Take `CC(c1ccco1)N(C(=O)CSc1ccc(Br)cc1)c1ccccn1` (stereo unspecified): the EC50 is > 60 µM (inactive), the EC90 is above 60 µM and the CC50 is above 60 µM.
As to `Cc1ccccc1Nc1ncnc2c1cnn2-c1ccccc1`, the EC50 was > 60 µM (inactive), the 90% effect concentration (EC90) is above 60 µM and the 50% cytotoxic concentration (CC50) is above 60 µM.
Consider `COc1ccc(OC)c(-n2c(SCC(N)=O)nnc2-c2c[nH]c3ccccc23)c1`, for which the EC50 was > 60 µM (inactive), the EC90 is above 60 µM and the CC50 is above 60 µM.
`COc1ccccc1Cn1c(=O)[nH]c2cccnc21`: the EC50 is > 60 µM (inactive), the EC90 is above 60 µM and the CC50 was above 60 µM.
As to `CCCCOc1ccc(C(=O)C(CN2CCOCC2)c2ccccc2)cc1` (stereo unspecified), the EC50 was > 60 µM (inactive), the EC90 is above 60 µM and the CC50 was above 60 µM.
On to `CC(C)(C)OC(=O)NCCc1nnc(SCc2ccccc2Cl)o1`, for which the EC50 is > 60 µM (inactive), the EC90 is above 60 µM and the CC50 was above 60 µM.
Take `COc1ccc(-c2nnc(SCC#N)o2)cc1`: the EC50 is > 60 µM (inactive), the EC90 is above 60 µM and the CC50 worked out at 19.7 µM.
Turning to `O=C(Nc1ccccc1-c1ccccc1)c1ccc(NC(=O)c2ccco2)cc1`, the EC50 is > 60 µM (inactive), the EC90 was above 60 µM and the CC50 was above 60 µM.
`CCN(CC)S(=O)(=O)c1ccc(C(=O)NCc2ccc(C)cc2)cc1`: the EC50 is > 60 µM (inactive), the EC90 is above 60 µM and the CC50 is above 60 µM.
As to `O=C(C1CCCCN1S(=O)(=O)c1ccccc1)N1CCN(Cc2ccccc2)CC1` (stereo unspecified), the EC50 was > 60 µM (inactive), the EC90 is above 60 µM and the CC50 was above 60 µM.
With `COc1ccc(S(=O)(=O)Nc2ccc(F)cc2)cc1N(C)S(=O)(=O)c1ccc(Cl)cc1`, the EC50 is > 60 µM (inactive), the EC90 was above 60 µM and the 50% cytotoxic concentration (CC50) is above 60 µM.
Regarding `Cc1cc(C(=O)Nc2c(C)n(C)n(-c3ccccc3)c2=O)c(C)o1`, the EC50 is > 60 µM (inactive), the EC90 is above 60 µM and the cytotoxic concentration (CC50) was above 60 µM.
For `CCOc1ccc(-c2nnc3ccc(SCC(=O)NCc4ccco4)nn23)cc1`, the EC50 was > 60 µM (inactive), the EC90 was above 60 µM and the CC50 was above 60 µM.
As for `COCc1cc(=O)n2c(-c3ccc(C)cc3)n[nH]c2n1`, the EC50 is > 60 µM (inactive), the EC90 was above 60 µM and the CC50 is above 60 µM.
Consider `O=C1Cn2c(nc3ccccc32)N1c1ccccc1F`, for which the EC50 is > 60 µM (inactive), the EC90 is above 60 µM and the half-maximal cytotoxic concentration (CC50) is above 60 µM.
As to `CCOC(=O)CN(C(=O)Cn1nnc2ccccc21)C(C(=O)NCCOC)c1ccccc1` (stereo unspecified), the EC50 is > 60 µM (inactive), the EC90 was above 60 µM and the CC50 is above 60 µM.
On to `C=CCSc1nnc(-c2cccnc2)o1`, for which the EC90 is above 60 µM and the CC50 was above 60 µM.
Regarding `CC(C)(C)c1ccc(S(=O)(=O)N2CCCCC2C(=O)NCc2ccccn2)cc1` (stereo unspecified), the EC50 was > 60 µM (inactive), the EC90 was above 60 µM and the CC50 is above 60 µM.
Regarding `CSc1nnc(-c2ccccc2Cl)o1`, the EC50 was > 60 µM (inactive), the EC90 was above 60 µM and the CC50 was above 60 µM.
`Cc1c(C(=O)Nc2ccncc2)oc2ccccc12`: the EC50 was > 60 µM (inactive), the EC90 was above 60 µM and the CC50 is above 60 µM.
With `O=C1CC(C(=O)Nc2ccc(C(=O)N3CCOCC3)cc2)C2(CCCCC2)O1` (stereo unspecified), the EC50 was > 60 µM (inactive), the EC90 is above 60 µM and the CC50 is above 60 µM.
Turning to `CC(c1ccco1)N(C(=O)COc1ccccc1[N+](=O)[O-])c1ccccn1` (stereo unspecified), the EC50 is > 60 µM (inactive), the EC90 was above 60 µM and the CC50 is above 60 µM.
`CCOC(=O)/C=C1\SCC(=O)N1CC(=O)NC(C)C`: the EC50 was > 60 µM (inactive), the EC90 was above 60 µM and the CC50 was above 60 µM.
In the case of `O=C(Nc1nc(-c2ccccc2)cs1)C1CCCCN1S(=O)(=O)c1ccccc1` (stereo unspecified), the EC50 is > 60 µM (inactive), the EC90 is above 60 µM and the CC50 is above 60 µM.
For the compound `Cc1cc(NC(=O)CSc2nnc(-c3cccnc3)n2C2CCCCC2C)no1` (stereo unspecified), the EC50 is > 60 µM (inactive), the EC90 is above 60 µM and the CC50 is above 60 µM.
Turning to `COc1ccc(OC)c(Nc2ncnc3c2cnn3-c2ccccc2)c1`, the EC50 was > 60 µM (inactive), the concentration for an effect of 90% (EC90) was above 60 µM and the CC50 was above 60 µM.
`COC(=O)c1ccc(CN(C(C)=O)c2ccccc2)o1`: the EC50 is > 60 µM (inactive), the EC90 is above 60 µM and the CC50 was above 60 µM.
For `Cc1cccc(-n2ncc3c(Nc4ccc(F)cc4)ncnc32)c1`, the EC50 is > 60 µM (inactive), the EC90 was above 60 µM and the CC50 was above 60 µM.
Regarding `CC1Cc2ccccc2N1C(=O)CSc1nnc2sc3ccccc3n12` (stereo unspecified), the EC50 was > 60 µM (inactive), the EC90 was above 60 µM and the CC50 turned out to be 10.1 µM.
On the same counts, the results for `O=C(O)CCc1nnc2n(Cc3ccc(F)cc3)c(=O)c3ccccc3n12` are > 60 µM (inactive), above 60 µM and above 60 µM.
For `CC(C)c1cccc(C(C)C)c1OCCCCN1CCCC1`, in that order: > 60 µM (inactive), above 60 µM and above 60 µM.
With `Cc1cc(=O)n2c(-c3ccccc3C)n[nH]c2n1`, the EC50 is > 60 µM (inactive), the EC90 is above 60 µM and the CC50 was above 60 µM.
As to `COCCNC(=O)C(c1ccco1)N(C(=O)Cn1nnc2ccccc21)c1ccccc1C` (stereo unspecified), the EC50 is > 60 µM (inactive), the EC90 is above 60 µM and the CC50 was above 60 µM.
Consider `COc1ccc(OC)c(-n2c(SCC(=O)Nc3cc(C)on3)nnc2-c2c[nH]c3ccccc23)c1`, for which the EC50 was > 60 µM (inactive), the EC90 is above 60 µM and the CC50 is above 60 µM.
Turning to `Cc1cc(NC(=O)CSc2nnc(CNc3ccc(F)cc3)n2C2CCCCC2)no1`, the EC50 is 61.8 µM (inactive), the EC90 was above 60 µM and the CC50 is above 60 µM.
Regarding `CN1C(=O)Cn2c1nc1ccccc12`, the EC50 was > 60 µM (inactive), the concentration for an effect of 90% (EC90) was above 60 µM and the CC50 is above 60 µM.
On to `O=c1[nH]c2cccnc2n1Cc1ccccc1`, for which the EC50 was > 60 µM (inactive), the EC90 is above 60 µM and the CC50 is above 60 µM.
For `CCC(C)NC(=O)C1CCCCN1S(=O)(=O)c1ccc(F)cc1` (stereo unspecified), the EC50 was > 60 µM (inactive), the EC90 was above 60 µM and the CC50 is above 60 µM.
On to `CCOC(=O)c1cnn(-c2ccccc2)c1-n1cccc1C(=O)C(=O)Nc1ccccc1C(F)(F)F`, for which the EC50 was > 60 µM (inactive), the EC90 is above 60 µM and the 50% cytotoxic concentration (CC50) is above 60 µM.
Take `Cc1cccc(NC(=O)C2CC(=O)OC23CCCCC3)c1` (stereo unspecified): the EC50 was > 60 µM (inactive), the EC90 is above 60 µM and the CC50 was above 60 µM.
For `COc1cccc(C2=NOC(C(=O)Nc3cc(C)nn3-c3ccccc3)C2)c1OC` (stereo unspecified), the EC50 was > 60 µM (inactive), the EC90 was above 60 µM and the CC50 is above 60 µM.
What is called pEC50 is the negative decadic logarithm of the EC50, by convention in mol/L. Take `COc1ccc(C2NC(=O)NC3=C2CCc2ccccc23)cc1` (stereo unspecified): the pEC50 was 5.44, the EC90 is above 60 µM and the CC50 is above 60 µM.
As to `O=c1[nH]c2ccccc2n1Cc1ccccc1`, the EC50 is > 60 µM (inactive), the EC90 was above 60 µM and the CC50 was above 60 µM.
As to `C=CCSc1nnc(-c2ccc(Cl)cc2Cl)o1`, the EC50 was 59.2 µM (inactive), the EC90 is above 60 µM and the CC50 is above 60 µM.
As to `Cc1nc2c(C(=O)N3CCOCC3)cnn2c(C)c1Cc1ccc(Cl)cc1`, the EC50 was > 60 µM (inactive), the EC90 is above 60 µM and the CC50 is above 60 µM.
For `O=C(c1noc2c1CCc1ccccc1-2)N1CCOCC1`, the EC50 was > 60 µM (inactive), the EC90 is above 60 µM and the CC50 is above 60 µM.
Take `CCOC(=O)/C=C1\SCC(=O)N1CC(=O)NC1CCCCC1`: the EC50 is > 60 µM (inactive), the EC90 was above 60 µM and the CC50 is above 60 µM.
Regarding `Cc1cc(C(=O)Nc2c(C)n(C)n(-c3ccccc3)c2=O)cs1`, the EC50 is > 60 µM (inactive), the EC90 is above 60 µM and the CC50 was above 60 µM.
As to `COc1ccc(S(=O)(=O)Nc2ccc(C)cc2)cc1N(C)S(=O)(=O)c1ccc(Cl)cc1`, the EC50 is > 60 µM (inactive), the EC90 was above 60 µM and the CC50 is above 60 µM.
With `Cc1ccc(/C=C/C(=O)c2c(C)cc(C)[nH]c2=O)cc1`, the EC50 was > 60 µM (inactive), the EC90 is above 60 µM and the CC50 is above 60 µM.
For the compound `O=C(c1cc(-c2ccc(Cl)cc2)n(-c2ccc(Cl)c(Cl)c2)n1)N1CCOCC1`, the EC50 is > 60 µM (inactive), the EC90 was above 60 µM and the CC50 amounted to 3.62 µM.
On the same counts, the results for `COc1ccccc1CNC(=O)c1c(O)c2cc(OC)c(OC)cc2[nH]c1=O` are > 60 µM (inactive), above 60 µM and above 60 µM.
For `O=C(c1cnn2c(C(F)F)cc(C3CC3)nc12)N1CCOCC1`, in that order: > 60 µM (inactive), above 60 µM and above 60 µM.
For `CCN(CC)C(=O)CN1CCN(c2ncccn2)CC1`, in that order: > 60 µM (inactive), above 60 µM and above 60 µM.
